Data from US8399501B2, “Crystalline alkoxyimidazol-1-ylmethyl biphenyl carboxylic acid and methods for preparing thereof” (Theravance, Inc., priority 2010, dated 2013).

Experiment: Solid state stability assessment (storage at 40° C. with desiccant, impurities by HPLC)
Format: physicochemical
Details: for % M + 28 (ethyl ester imidazole impurity, HPLC area percentage) / % M − 28 (acid dihydroimidazole impurity, HPLC area percentage) / Δ % M + 28 (increase relative to time zero) / Δ % M − 28 (increase relative to time zero): closed vials, Molecular Sieve 4A dessicant
Experimental: Samples of the crystalline 4′-{2-ethoxy-4-ethyl-5-[((S)-2-mercapto-4-methylpentanoyl-amino)methyl]imidazol-1-ylmethyl}-3′-fluorobiphenyl-2-carboxylic acid, the micronized crystalline compound, and the slurried micronized crystalline compound, about 15 mg each, were stored in multiple closed vials at 40° C. (with 1 g Molecular Sieve 4A dessicant included). At specific intervals, the entire contents of representative vials were analyzed by the following HPLC method:
Column: Agilent Zorbox SB-C18, 4.6×250 mm, 5 μm (Part No. 880975-902). Mobile Phase A: 80% water, 20% MeCN, 0.01% TFA. Mobile Phase B: 20% water, 80% MeCN, 0.01% TFA. Flow rate: 1 mL/min. Injection Volume: 20 μL. Detector: 225 nm.
Samples were prepared as 0.2-0.3 mg/mL stock solutions in 40% MeOH and 60% MeCN in water, depending on the solubility, for injection onto the HPLC. The amount of 4′-{2-ethoxy-4-ethyl-5-[(2-mercapto-4-methylpentanoylamino)methyl]imidazol-1-ylmethyl}-3′-fluorobiphenyl-2-carboxylic acid ethyl ester (M+28) and 4′-{4-ethyl-5-[(2-mercapto-4-methylpentanoylamino)methyl]-2-oxo-2,3-dihydroimidazol-1-ylmethyl}-3′-fluorobiphenyl-2-carboxylic acid (M−28) present were determined by HPLC area percentage (% AUC or area/area %).

[1] = 2 weeks at 40° C., listed as Ex. 1
[2] = 4 weeks at 40° C., listed as Ex. 1
[3] = 2 weeks at 40° C., listed as Ex. 2
[4] = 4 weeks at 40° C., listed as Ex. 2
[5] = 2 weeks at 40° C., listed as Ex. 3
[6] = 2 weeks at 40° C., listed as stable micronized acid imidazole
[7] = 4 weeks at 40° C., listed as Ex. 3
[8] = 4 weeks at 40° C., listed as stable micronized acid imidazole

CCOc1nc(CC)c(CNC(=O)[C@@H](S)CC(C)C)n1Cc1ccc(-c2ccccc2C(=O)O)cc1F [Example 1, 4′-{2-Ethoxy-4-ethyl-5-[((S)-2-mercapto-4-methylpentanoylamino)methyl]imidazol-1-ylmethyl}-3′-fluorobiphenyl-2-carboxylic Acid]
% M + 28 (ethyl ester imidazole impurity, HPLC area percentage) [1]: 0.05%
% M − 28 (acid dihydroimidazole impurity, HPLC area percentage) [1]: 0.04%
Δ % M + 28 (increase relative to time zero) [1]: 0.05%
Δ % M − 28 (increase relative to time zero) [1]: −0.01%
% M + 28 (ethyl ester imidazole impurity, HPLC area percentage) [2]: 0.05%
% M − 28 (acid dihydroimidazole impurity, HPLC area percentage) [2]: 0.05%
Δ % M + 28 (increase relative to time zero) [2]: 0.05%
Δ % M − 28 (increase relative to time zero) [2]: 0%
% M + 28 (ethyl ester imidazole impurity, HPLC area percentage) (T = 0, 40° C., listed as Ex. 1): 0%
% M − 28 (acid dihydroimidazole impurity, HPLC area percentage) (T = 0, 40° C., listed as Ex. 1): 0.05%

CCOc1nc(CC)c(CNC(=O)[C@@H](S)CC(C)C)n1Cc1ccc(-c2ccccc2C(=O)O)cc1F [Example 2, 4′-{2-ethoxy-4-ethyl-5-[((S)-2-mercapto-4-methylpentanoylamino)-methyl]imidazol-1-ylmethyl}-3′-fluorobiphenyl-2-carboxylic acid]
Δ % M + 28 (increase relative to time zero) (2 weeks at 40° C.): about 0.30%
Δ % M − 28 (increase relative to time zero) (2 weeks at 40° C.): about 0.38%
% M + 28 (ethyl ester imidazole impurity, HPLC area percentage) [3]: 0.40%
% M − 28 (acid dihydroimidazole impurity, HPLC area percentage) [3]: 0.47%
Δ % M + 28 (increase relative to time zero) [3]: 0.30%
Δ % M − 28 (increase relative to time zero) [3]: 0.38%
% M + 28 (ethyl ester imidazole impurity, HPLC area percentage) [4]: 0.44%
% M − 28 (acid dihydroimidazole impurity, HPLC area percentage) [4]: 0.61%
Δ % M + 28 (increase relative to time zero) [4]: 0.34%
Δ % M − 28 (increase relative to time zero) [4]: 0.52%
% M + 28 (ethyl ester imidazole impurity, HPLC area percentage) (T = 0, 40° C., listed as Ex. 2): 0.10%
% M − 28 (acid dihydroimidazole impurity, HPLC area percentage) (T = 0, 40° C., listed as Ex. 2): 0.09%

CCOc1nc(CC)c(CNC(=O)[C@@H](S)CC(C)C)n1Cc1ccc(-c2ccccc2C(=O)O)cc1F [Example 3, 4′-{2-ethoxy-4-ethyl-5-[((S)-2-mercapto-4-methylpentanoylamino)methyl]imidazol-1-ylmethyl}-3′-fluorobiphenyl-2-carboxylic acid]
Δ % M + 28 (increase relative to time zero) (2 weeks at 40° C.): about 0.01%
Δ % M − 28 (increase relative to time zero) (2 weeks at 40° C.): about 0.05%
% M + 28 (ethyl ester imidazole impurity, HPLC area percentage) [5]: 0.07%
% M − 28 (acid dihydroimidazole impurity, HPLC area percentage) [5]: 0.20%
Δ % M + 28 (increase relative to time zero) [5]: 0.01%
Δ % M − 28 (increase relative to time zero) [5]: 0.05%
Δ % M + 28 (increase relative to time zero) [6]: ≤ 0.1%
Δ % M − 28 (increase relative to time zero) [6]: ≤ 0.1%
Δ % M + 28 (increase relative to time zero) (4 weeks at 40° C.): about 0.02%
Δ % M − 28 (increase relative to time zero) (4 weeks at 40° C.): about 0.09%
% M + 28 (ethyl ester imidazole impurity, HPLC area percentage) [7]: 0.08%
% M − 28 (acid dihydroimidazole impurity, HPLC area percentage) [7]: 0.24%
Δ % M + 28 (increase relative to time zero) [7]: 0.02%
Δ % M − 28 (increase relative to time zero) [7]: 0.09%
Δ % M + 28 (increase relative to time zero) [8]: ≤ 0.1%
Δ % M − 28 (increase relative to time zero) [8]: ≤ 0.1%
% M + 28 (ethyl ester imidazole impurity, HPLC area percentage) (T = 0, 40° C., listed as Ex. 3): 0.06%
% M − 28 (acid dihydroimidazole impurity, HPLC area percentage) (T = 0, 40° C., listed as Ex. 3): 0.15%
chemical degradation by HPLC after storage (about 40° C. for at least 2 weeks, with a desiccant such as molecular sieves): minimal chemical degradation
